Our source for the EC50, concentration of maximal effect on [3H]-thymidine incorporation and stimulation of proliferation values is US20090176798A1, “New compounds III” (Biovitrum AB, priority 2007, published 2009).

Assay [1] relates to JEG-3 cells. Description: [3H]-thymidine incorporation in JEG-3 cells (leptin assay in non-recombinant system). It counts as cell-based. As to conditions: FIG. 5. The protocol:
In JEG-3 cells (choriocarcinoma cell line) leptin is able to stimulate proliferation up to 3 fold (Biol. Reprod. (2007) 76: 203-10). […] The radioactivity incorporated by the cells is an index of their proliferative activity and is measured in counts per minute (CPM) with a liquid scintillation beta counter.
This finding can be applied to test whether a compound is able to either reproduce the effect of leptin on cell proliferation (leptin receptor agonist mimetic) (i.e., a given compound will cause an increase in incorporated [^3H]-Thymidine by the cells) or to inhibit the effect of leptin (antagonistic effect) by preventing the leptin-mediated increase in [^3H]-thymidine incorporation.
This approach has the advantage of using a non-recombinant system and has reasonable reproducibility and robustness.
On the technique in general: Uptake of a labelled nucleoside into DNA is a usual measure of proliferation.

Assay [2] concerns JEG-3 cells. As to conditions: Biol. Reprod. (2007) 76: 203-10; cited from earlier work.

In the case of “leptin: a hormone synthesized in fat cells that is believed to act in the hypothalamus to reduce food intake and body weight”, the EC50 with JEG-3 cells [1] (JEG-3 cells (choriocarcinoma cell line), read-out: EC50, increase in [3H]-thymidine incorporation) was 2.1 nM. For the same substance, the concentration of maximal effect on [3H]-thymidine incorporation in the assay with JEG-3 cells [1] (JEG-3 cells) worked out at 100 nM. For the same substance, the stimulation of proliferation entry in the assay with JEG-3 cells [2] was “up to 3 fold”.
